Results as given in US10519177B2, “Heterocyclic compounds and uses thereof” (Plexxikon Inc., priority 2013, dated 2019).

Columns and labels:
MV-4-11 cells = assay: Oncology cell growth assay MV-4-11 (CellTiter Glo); type: cell-based; settings: Homo sapiens, MV4-11, 72 h; MV-4-11, 3d growth; read-out: Cell activity (IC50 μM) MV-4-11 3d-Growth
Outline: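 MV-4-11 AML cells (MLL-AF4), 3000 per well, exposed to 8-point 1:3 compound titration from 10 μM top concentration (0.2% DMSO) for 72 h. Viability by CellTiter Glo luminescence, normalized to DMSO controls; pIC50 from four-parameter curve fit.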

BRD4-BD12 (1-477) = BRD4-BD12 (1-477) (Homo sapiens (Human), UniProt O60885); assay: Alphascreen binding assay BRD4-BD12; settings: BRD4(1 2) H4; read-out: Biochemical activity (IC50 μM) BRD4(1 2) H4
Outline: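 First, compound was preincubated 1 h at room temperature with the His-tagged BRD4 protein (BD1 44-164 or tandem BD12 1-477) and acetylated H4 peptide. Next, donor and acceptor beads were added at 7.5 μg/ml final. After 30 min, AlphaScreen emission was recorded.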

Compound | IC50 (MV-4-11 cells) | IC50 (BRD4-BD12 (1-477))
COC(=O)c1ccc(-c2cn([C@@H](C)c3ccccn3)c3cc(-c4c(C)noc4C)cnc23)s1 [P-1006, methyl 5-[6-(3,5-dimethylisoxazol-4-yl)-1-[(1S)-1-(2-pyridyl)ethyl]pyrrolo[3,2-b]pyridin-3-yl]thiophene-2-carboxylate] | < 1 µM | < 1 µM
COC(=O)c1ccc(-c2cn(C(c3ccccn3)C3CCC3)c3cc(-c4c(C)noc4C)cnc23)cc1 (stereo not drawn) [P-1011, methyl 4-[1-[cyclobutyl(2-pyridyl)methyl]-6-(3,5-dimethylisoxazol-4-yl)pyrrolo[3,2-b]pyridin-3-yl]benzoate] | < 1 µM | < 1 µM
Cc1noc(C)c1-c1cnc2c(-c3ccc(C4(C(=O)O)CC4)cc3)cn(C(c3ccccn3)C3CCCC3)c2c1 (stereo not drawn) [P-1049, 1-[4-[1-[cyclopentyl(2-pyridyl)methyl]-6-(3,5-dimethylisoxazol-4-yl)pyrrolo[3,2-b]pyridin-3-yl]phenyl]cyclopropanecarboxylic acid] | < 1 µM | < 1 µM
CC[C@@H](c1ccccn1)n1cc(-c2ccc(C3(C(=O)O)CC3)cc2)c2ncc(-c3c(C)noc3C)cc21 [P-0969, 1-[4-[6-(3,5-dimethylisoxazol-4-yl)-1-[(1S)-1-(2-pyridyl)propyl]pyrrolo[3,2-b]pyridin-3-yl]phenyl]cyclopropanecarboxylic acid] | < 1 µM | < 1 µM
CC[C@@H](c1ccccn1)n1cc(-c2ccc(C(=O)O)c(C)c2)c2ncc(-c3c(C)noc3C)cc21 [P-1026, 4-[6-(3,5-dimethylisoxazol-4-yl)-1-[(1S)-1-(2-pyridyl)propyl]pyrrolo[3,2-b]pyridin-3-yl]-2-methyl-benzoic acid] | < 1 µM | < 1 µM
COC(=O)c1ccc(-c2cn(Cc3ccc(F)cn3)c3cc(-c4c(C)noc4C)cnc23)cc1 [P-0918, methyl 4-[6-(3,5-dimethylisoxazol-4-yl)-1-[(5-fluoro-2-pyridyl)methyl]pyrrolo[3,2-b]pyridin-3-yl]benzoate] | < 1 µM | < 1 µM
Cc1noc(C)c1-c1ccc2c(-c3cccc(CC(=O)O)c3)cn(C(c3ccccc3)c3ccccn3)c2c1 (stereo not drawn) [P-1050, 2-[3-[6-(3,5-dimethylisoxazol-4-yl)-1-[phenyl(2-pyridyl)methyl]indol-3-yl]phenyl]acetic acid] | < 1 µM | < 1 µM
Cc1noc(C)c1-c1cnc2c(-c3ccc(C4(C(=O)O)CC4)cc3)cn(CC3(C)CCOCC3)c2c1 [P-0943, 1-[4-[6-(3,5-dimethylisoxazol-4-yl)-1-[(4-methyltetrahydropyran-4-yl)methyl]pyrrolo[3,2-b]pyridin-3-yl]phenyl]cyclopropanecarboxylic acid] | 1 to 10 µM | < 1 µM
COc1ccccc1Cn1cc(I)c2ncc(-c3c(C)noc3C)cc21 [P-0932, 4-[3-iodo-1-[(2-methoxyphenyl)methyl]pyrrolo[3,2-b]pyridin-6-yl]-3,5-dimethyl-isoxazole] | < 1 µM | < 1 µM
COC(=O)C1(c2ccc(-c3cn([C@@H](C)c4ccccn4)c4cc(-c5c(C)noc5C)cnc34)cc2)CC1 [P-0942, methyl 1-[4-[6-(3,5-dimethylisoxazol-4-yl)-1-[(1S)-1-(2-pyridyl)ethyl]pyrrolo[3,2-b]pyridin-3-yl]phenyl]cyclopropanecarboxylate] | < 1 µM | < 1 µM
Cc1noc(C)c1-c1cnc2c(-c3ccc(C(C)(C)C#N)cc3)cn(CC3(C)CCOCC3)c2c1 [P-0946, 2-[4-[6-(3,5-dimethylisoxazol-4-yl)-1-[(4-methyltetrahydropyran-4-yl)methyl]pyrrolo[3,2-b]pyridin-3-yl]phenyl]-2-methyl-propanenitrile] | < 1 µM | < 1 µM
Cc1noc(C)c1-c1cnc2c(-c3ccc(C(=O)O)cc3)cn(Cc3ncccc3F)c2c1 [P-0949, 4-[6-(3,5-dimethylisoxazol-4-yl)-1-[(3-fluoro-2-pyridyl)methyl]pyrrolo[3,2-b]pyridin-3-yl]benzoic acid] | < 1 µM | < 1 µM
CC[C@H](c1ccccn1)n1cc(-c2ccc(CC(=O)O)cc2)c2ncc(-c3c(C)noc3C)cc21 [P-0962, 2-[4-[6-(3,5-dimethylisoxazol-4-yl)-1-[(1R)-1-(2-pyridyl)propyl]pyrrolo[3,2-b]pyridin-3-yl]phenyl]acetic acid] | < 1 µM | < 1 µM
CC[C@@H](c1ccccn1)n1cc(-c2ccc(C(=O)O)cc2)c2ncc(-c3c(C)noc3C)cc21 [P-0967, 4-[6-(3,5-dimethylisoxazol-4-yl)-1-[(1S)-1-(2-pyridyl)propyl]pyrrolo[3,2-b]pyridin-3-yl]benzoic acid] | < 1 µM | < 1 µM
CC[C@H](c1ccccn1)n1cc(I)c2ncc(-c3c(C)noc3C)cc21 [P-0956, 4-[3-iodo-1-[(1R)-1-(2-pyridyl)propyl]pyrrolo[3,2-b]pyridin-6-yl]-3,5-dimethyl-isoxazole] | < 1 µM | < 1 µM
CCOCc1ccc(-c2cn(CC3CCC(F)(F)CC3)c3cc(-c4c(C)noc4C)cnc23)cc1 [P-0909, 4-[1-[(4,4-difluorocyclohexyl)methyl]-3-[4-(ethoxymethyl)phenyl]pyrrolo[3,2-b]pyridin-6-yl]-3,5-dimethyl-isoxazole] | < 1 µM | < 1 µM
Cc1noc(C)c1-c1cnc2c(-c3ccc(CC(=O)O)cc3)cn(C(c3ccccn3)C3CCC3)c2c1 (stereo not drawn) [P-1015, 2-[4-[1-[cyclobutyl(2-pyridyl)methyl]-6-(3,5-dimethylisoxazol-4-yl)pyrrolo[3,2-b]pyridin-3-yl]phenyl]acetic acid] | < 1 µM | < 1 µM
Cc1noc(C)c1-c1cnc2c(-c3ccc(C(C)(C)C#N)cc3)cn(CC3CCC(F)(F)CC3)c2c1 [P-0905, 2-[4-[1-[(4,4-difluorocyclohexyl)methyl]-6-(3,5-dimethylisoxazol-4-yl)pyrrolo[3,2-b]pyridin-3-yl]phenyl]-2-methyl-propanenitrile] | < 1 µM | < 1 µM
CC[C@@H](c1ccccn1)n1cc(-c2ccc(CC(=O)O)cc2)c2ncc(-c3c(C)noc3C)cc21 [P-0986, 2-[4-[6-(3,5-dimethylisoxazol-4-yl)-1-[(1S)-1-(2-pyridyl)propyl]pyrrolo[3,2-b]pyridin-3-yl]phenyl]acetic acid] | < 1 µM | < 1 µM
Cc1noc(C)c1-c1cnc2c(-c3ccc(C(=O)O)cc3)cn(C(c3ccccn3)C3CCOCC3)c2c1 (stereo not drawn) [P-1036, 4-[6-(3,5-dimethylisoxazol-4-yl)-1-[2-pyridyl(tetrahydropyran-4-yl)methyl]pyrrolo[3,2-b]pyridin-3-yl]benzoic acid] | < 1 µM | < 1 µM
Cc1noc(C)c1-c1cnc2c(-c3ccc(C(=O)O)cc3)cn(CC3(C)CCCCC3)c2c1 [P-0912, 4-[6-(3,5-dimethylisoxazol-4-yl)-1-[(1-methylcyclohexyl)methyl]pyrrolo [3,2-b]pyridin-3-yl]benzoic acid] | < 1 µM | < 1 µM
COc1ccccc1Cn1cc(-c2ccc(C(=O)O)cc2)c2ncc(-c3c(C)noc3C)cc21 [P-0934, 4-[6-(3,5-dimethylisoxazol-4-yl)-1-[(2-methoxyphenyl)methyl]pyrrolo[3,2-b]pyridin-3-yl]benzoic acid] | < 1 µM | < 1 µM
Cc1noc(C)c1-c1cnc2c(-c3ccc(C(=O)O)cc3)cn([C@@H](c3ccccn3)C3CC3)c2c1 [P-0987, 4-[1-[(R)-cyclopropyl(2-pyridyl)methyl]-6-(3,5-dimethylisoxazol-4-yl)pyrrolo[3,2-b]pyridin-3-yl]benzoic acid] | < 1 µM | < 1 µM
Cc1noc(C)c1-c1cnc2c(-c3cccc(NS(C)(=O)=O)c3)cn([C@@H](C)c3ccccn3)c2c1 [P-0981, N-[3-[6-(3,5-dimethylisoxazol-4-yl)-1-[(1S)-1-(2-pyridyl)ethyl]pyrrolo[3,2-b]pyridin-3-yl]phenyl]methanesulfonamide] | < 1 µM | < 1 µM
COC(=O)Cc1ccc(-c2cn(Cc3ccccn3)c3cc(-c4c(C)noc4C)cnc23)cc1 [P-0965, methyl 2-[4-[6-(3,5-dimethylisoxazol-4-yl)-1-(2-pyridylmethyl)pyrrolo[3,2-b]pyridin-3-yl]phenyl]acetate] | < 1 µM | < 1 µM
Cc1ncc(Cn2cc(-c3ccc(C(=O)O)cc3)c3ncc(-c4c(C)noc4C)cc32)s1 [P-0958, 4-[6-(3,5-dimethylisoxazol-4-yl)-1-[(2-methylthiazol-5-yl)methyl]pyrrolo[3,2-b]pyridin-3-yl]benzoic acid] | < 1 µM | < 1 µM
CC[C@H](c1ccccn1)n1cc(-c2ccc(C(=O)O)cc2)c2ncc(-c3c(C)noc3C)cc21 [P-0960, 4-[6-(3,5-dimethylisoxazol-4-yl)-1-[(1R)-1-(2-pyridyl)propyl]pyrrolo[3,2-b]pyridin-3-yl]benzoic acid] | < 1 µM | < 1 µM
Cc1noc(C)c1-c1cnc2c(c1)c(P(=O)(c1ccccc1)c1ccccc1)cn2-c1ccc(C(=O)O)cc1 [P-0951, 4-[5-(3,5-dimethylisoxazol-4-yl)-3-diphenylphosphoryl-pyrrolo[2,3-b]pyridin-1-yl]benzoic acid] | < 1 µM | < 1 µM
Cc1ccc(-c2cn(C(c3ccccc3)c3ccccn3)c3cc(-c4c(C)noc4C)cnc23)cc1 (stereo not drawn) [P-0901, 3,5-dimethyl-4-[1-[phenyl(2-pyridyl)methyl]-3-(p-tolyl)pyrrolo[3,2-b]pyridin-6-yl]isoxazole] | < 1 µM | < 1 µM
Cc1noc(C)c1-c1cnc2c(-c3ccc(C(=O)O)cc3)cn(Cc3ccc(F)cn3)c2c1 [P-0917, 4-[6-(3,5-dimethylisoxazol-4-yl)-1-[(5-fluoro-2-pyridyl)methyl]pyrrolo[3,2-b]pyridin-3-yl]benzoic acid] | < 1 µM | < 1 µM
